In US20220054540A1, “Ferric Carboxymaltose In The Treatment Of Heart Failure And In The Treatment Of Congestion In Heart Failure” (Vifor (International) AG, priority 2018, published 2022):

Legend:
[1] = system: ambulatory patients with NYHA class II or III CHF and iron deficiency; test: FAIR-HF plasma volume status (PVS) substudy: post-hoc analysis of calculated PVS and clinical congestion, IV FCM vs placebo; type: in vivo, human (patients); conditions: for change from baseline in Hct / change from baseline in PVS / change from baseline in weight: mean±SD; for change from baseline in Hct: significant increase compared to placebo
Method: FAIR-HF is a multi-centre, randomized, double-blind trial including 459 ambulatory patients with NYHA class II or III CHF, a left ventricular ejection fraction (LVEF) ≤40% (NYHA II) or ≤45% (NYHA III), iron deficiency (ID) as defined by a ferritin <100 ug/l or 100 to 299 ug/l with a transferrin saturation (TSAT)<20%, and a hemoglobin (Hb) level between 9.5 and 13.5 g/dl. Patients were randomized in a 2:1 ratio to intravenous (IV) iron as ferric carboxymaltose (FCM; Ferinject®) or IV placebo (saline) weekly until iron repletion (correction phase), then 4 weekly until week 24 (maintenance phase). FCM was administered in doses of 200 mg (4 mL) weekly up to iron repletion (correction phase of variable duration depending on individual iron deficit). The calculated dose was rounded to the next 100 mg iron, i.e. the final dose may be 100 mg iron depending on the individual iron deficit. After the correction phase, FCM was administered monthly in doses of 200 mg until the 24th week (maintenance phase).
In the placebo group, during the correction phase, patients will receive the number of normal saline injections (4 mL weekly) corresponding to the calculated total iron dose needed according to the individual iron deficit. During the maintenance phase, placebo patients will receive 4 mL normal saline monthly. Regular assessments were done at weeks 4, 12, and 24.
The hematocrit value (Hct or Ht) and weight at randomization were used for plasma volume status (PVS) calculations and were available in 436 (95%) patients whose data were therefore used in this post-hoc analysis.
Actual plasma volume (PV) was calculated with the following equation that was derived by curve-fitting techniques using subjects' Hct and weight compared with PV values measured with gold standard radioisotope assays:
actual PV=([1−Hct]×[a+(b×weight [kg])])
where Hct is a fraction and a=1530 in males and 864 in females, and b=41 in males and 47.9 in females.
Ideal PV was calculated from the following well established formula:
where c=39 in males and 40 in females
Relative PVS, an index of the degree to which patients have deviated from their ideal PV, was subsequently calculated from the following equation:
PVS=([actual PV−ideal PV]/ideal PV)×100%
Patients were weighed and examined for signs and symptoms of congestion at randomization and at weeks 4, 12 and 24. The presence or absence of peripheral edema, pulmonary congestion (crackles, rales), and an S3 gallop (third heart sound) were recorded, as was the actual jugular venous pressure (JVP).
Data are presented as mean±SD, frequencies (%), or medians (interquartile range [IQR]). Intergroup comparisons were made using a Kruskall-Wallis analysis of variance (ANOVA), analysis of covariance (ANCOVA), Student t-test, Pearson χ2 test, or a Mann Whitney U-test as appropriate. Associations between variables were determined using logistic regression. A P-value <0.10 was used to enter and retain covariates into stepwise multivariable regression models.
To assess the impact of treatment assignment on PVS, comparisons of changes in PVS from baseline at 4, 12, and 24 weeks between the placebo and FCM group were evaluated by comparing the least square means at each visit from a repeated-measures model using an unstructured covariance structure and adjusting for the continuous baseline value and a visit x drug interaction. Changes over time for other variables were similarly determined.

[2] = system: ambulatory patients with NYHA class II or III CHF and iron deficiency; conditions: after 24 weeks of treatment, IV FCM compared to saline; cited from earlier work
[3] = cited from earlier work
[4] = cited from earlier work; remark: listed apart in the source
[5] = publications, e.g. Qunibi et al. 2011; cited from earlier work
[6] = week 4, significant reduction compared to placebo

## polynuclear iron(III)-oxyhydroxide carboxypolymaltose (carboxymaltodextrin) [FCM]
[1]; FCM treatment compared to placebo (FIG. 2d)
  peripheral edema: improvement in peripheral edema
[1]; FCM treatment vs placebo, P=0.35
  improvement in pulmonary edema: not evident
[1]; FCM treatment vs placebo, P=0.54
  improvement in jugular venous distension: not evident
[1]; FCM treatment vs placebo, P=1.00
  improvement in presence of an S3 gallop rhythm: not evident
[1]; FCM vs placebo
  time of maximal treatment effect on PVS: 12 week
[1]; week 4
  change from baseline in Hct: 2 ± 4%
[1]; [6]
  change from baseline in PVS: −2.5±5.9%
  change from baseline in weight: -0.2 ± 2.4 kg
[1]; week 12, not significant compared to placebo
  change from baseline in weight: 0.2 ± 3.0 kg
[1]; week 12
  change from baseline in Hct: 3 ± 4%
[1]; week 12, significant reduction compared to placebo
  change from baseline in PVS: −3.9±6.8%
[1]; week 24, not significant compared to placebo
  change from baseline in weight: 0.3 ± 3.2 kg
[1]; week 24
  change from baseline in Hct: 3 ± 5%
[1]; week 24, significant reduction compared to placebo
  change from baseline in PVS: −4.1±7.4%
[2]
  6 minute walking distance (6MWD): significant improvements
  NYHA class: significant improvements
  Patient Global Assessment (PGA): significant improvements
[3]; compared with ferric gluconate and iron sucrose
  stability of the iron-carbohydrate complex: more stable than ferric gluconate or iron sucrose
[3]; nearly neutral
  pH of the complex: 5.0-7.0
[4]; in vivo
  dextran cross-reactivity: no dextran cross-reactivity
[4]; up to 1000 mg of elemental iron over 15 min, intravenous
  tolerability of rapid infusion: well tolerated
[5]
  peripheral edema as adverse event: one of the most commonly occurring adverse events
